Test results taken from PubChem BioAssay AID2060886 (Molecular Pharmacology Branch, DTP, NCI, 2025).
Values belong to the compound of their own block, whether it stands above or below them.

System: 653999-131-R-J2-PDC complex spheroids, growth inhibition
Assay: Anticancer human tumor 653999-131-R-J2-PDC patient-derived lung adenocarcinoma cell line growth inhibition [RAS]
Conditions: for IC50: curve of first compound; for viability, T/C: stronger effect = lower value
Procedure, shortened: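 Multi-cell-type spheroids: tumor cells plus HUVEC endothelial cells and mesenchymal stem cells. RAS-pathway inhibitors were combined with targeted agents, each dosed in half-log steps down from clinical Cmax, or from 10 microM when Cmax was unknown.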
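Also: spheroids exposed to the agents for seven days before the readout.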

IC50 (second compound 0.0316 µM): 92.7 nM | IC50 (second compound 0.1 µM): 54.7 nM | IC50 (second compound 0.316 µM): 106 nM | IC50 (second compound 1 µM): < 3.16 nM | IC50 (second compound 3.16 µM): < 3.16 nM | IC50 (second compound 10 µM): < 3.16 nM
Compound: O=C(c1ccc(F)c(F)c1Nc1ccc(I)cc1F)N1CC(O)([C@@H]2CCCCN2)C1 + C#Cc1c(F)ccc2cc(O)cc(-c3ncc4c(N5CC6CCC(C5)N6)nc(OCC56CCCN5CC(F)C6)nc4c3F)c12
viability, T/C (second compound 0.0316 µM, first compound 0.00316 µM): 88.1% | viability, T/C (second compound 0.0316 µM, first compound 0.01 µM): 90.7% | viability, T/C (second compound 0.0316 µM, first compound 0.0316 µM): 60.7% | viability, T/C (second compound 0.0316 µM, first compound 0.1 µM): 52.7% | viability, T/C (second compound 0.0316 µM, first compound 0.316 µM): 25.6% | viability, T/C (second compound 0.0316 µM, first compound 1 µM): 7.56% | viability, T/C (second compound 0.1 µM, first compound 0.00316 µM): 70.9% | viability, T/C (second compound 0.1 µM, first compound 0.01 µM): 70.6% | viability, T/C (second compound 0.1 µM, first compound 0.0316 µM): 63% | viability, T/C (second compound 0.1 µM, first compound 0.1 µM): 34.6% | viability, T/C (second compound 0.1 µM, first compound 0.316 µM): 24% | viability, T/C (second compound 0.1 µM, first compound 1 µM): 8.72% | viability, T/C (second compound 0.316 µM, first compound 0.00316 µM): 62.3% | viability, T/C (second compound 0.316 µM, first compound 0.01 µM): 60.1% | viability, T/C (second compound 0.316 µM, first compound 0.0316 µM): 66.6% | viability, T/C (second compound 0.316 µM, first compound 0.1 µM): 49.9% | viability, T/C (second compound 0.316 µM, first compound 0.316 µM): 23.8% | viability, T/C (second compound 0.316 µM, first compound 1 µM): 8.41% | viability, T/C (second compound 1 µM, first compound 0.00316 µM): 50.1% | viability, T/C (second compound 1 µM, first compound 0.01 µM): 39.8% | viability, T/C (second compound 1 µM, first compound 0.0316 µM): 51.2% | viability, T/C (second compound 1 µM, first compound 0.1 µM): 43.4% | viability, T/C (second compound 1 µM, first compound 0.316 µM): 19.1% | viability, T/C (second compound 1 µM, first compound 1 µM): 6.71% | viability, T/C (second compound 3.16 µM, first compound 0.00316 µM): 34.5% | viability, T/C (second compound 3.16 µM, first compound 0.01 µM): 31.5% | viability, T/C (second compound 3.16 µM, first compound 0.0316 µM): 31.6% | viability, T/C (second compound 3.16 µM, first compound 0.1 µM): 21.4% | viability, T/C (second compound 3.16 µM, first compound 0.316 µM): 12.8% | viability, T/C (second compound 3.16 µM, first compound 1 µM): 5.39% | viability, T/C (second compound 10 µM, first compound 0.00316 µM): 26% | viability, T/C (second compound 10 µM, first compound 0.01 µM): 22.1% | viability, T/C (second compound 10 µM, first compound 0.0316 µM): 11.9% | viability, T/C (second compound 10 µM, first compound 0.1 µM): 11.9% | viability, T/C (second compound 10 µM, first compound 0.316 µM): 8.98% | viability, T/C (second compound 10 µM, first compound 1 µM): 2.85%

IC50 (second compound 0.000949 µM): 1280 nM | IC50 (second compound 0.003 µM): 722 nM | IC50 (second compound 0.00949 µM): 195 nM | IC50 (second compound 0.03 µM): < 31.6 nM | IC50 (second compound 0.0949 µM): < 31.6 nM | IC50 (second compound 0.3 µM): < 31.6 nM
Compound: CCC(CC)c1cc(NC2CCC(N)C2)n2nccc2n1 (centres undefined) + CCn1c(-c2cc(N3CCN(C)CC3)cnc2C(C)OC)c2c3cc(ccc31)-c1csc(n1)CC(NC(=O)C1CC1C)C(=O)N1CCCC(N1)C(=O)OCC(C)(C)C2
viability, T/C (second compound 0.000949 µM, first compound 0.0316 µM): 84.6% | viability, T/C (second compound 0.000949 µM, first compound 0.1 µM): 101% | viability, T/C (second compound 0.000949 µM, first compound 0.316 µM): 91.2% | viability, T/C (second compound 0.000949 µM, first compound 1 µM): 59.9% | viability, T/C (second compound 0.000949 µM, first compound 3.16 µM): 12% | viability, T/C (second compound 0.000949 µM, first compound 10 µM): 15% | viability, T/C (second compound 0.003 µM, first compound 0.0316 µM): 59.1% | viability, T/C (second compound 0.003 µM, first compound 0.1 µM): 88.6% | viability, T/C (second compound 0.003 µM, first compound 0.316 µM): 84.2% | viability, T/C (second compound 0.003 µM, first compound 1 µM): 39.2% | viability, T/C (second compound 0.003 µM, first compound 3.16 µM): 10.5% | viability, T/C (second compound 0.003 µM, first compound 10 µM): 18.8% | viability, T/C (second compound 0.00949 µM, first compound 0.0316 µM): 55.8% | viability, T/C (second compound 0.00949 µM, first compound 0.1 µM): 56.5% | viability, T/C (second compound 0.00949 µM, first compound 0.316 µM): 45.6% | viability, T/C (second compound 0.00949 µM, first compound 1 µM): 26.4% | viability, T/C (second compound 0.00949 µM, first compound 3.16 µM): 16.4% | viability, T/C (second compound 0.00949 µM, first compound 10 µM): 17.4% | viability, T/C (second compound 0.03 µM, first compound 0.0316 µM): 38.8% | viability, T/C (second compound 0.03 µM, first compound 0.1 µM): 51% | viability, T/C (second compound 0.03 µM, first compound 0.316 µM): 29.6% | viability, T/C (second compound 0.03 µM, first compound 1 µM): 20.4% | viability, T/C (second compound 0.03 µM, first compound 3.16 µM): 12.5% | viability, T/C (second compound 0.03 µM, first compound 10 µM): 18.8% | viability, T/C (second compound 0.0949 µM, first compound 0.0316 µM): 29.3% | viability, T/C (second compound 0.0949 µM, first compound 0.1 µM): 27.8% | viability, T/C (second compound 0.0949 µM, first compound 0.316 µM): 28.9% | viability, T/C (second compound 0.0949 µM, first compound 1 µM): 12.1% | viability, T/C (second compound 0.0949 µM, first compound 3.16 µM): 11.7% | viability, T/C (second compound 0.0949 µM, first compound 10 µM): 18.9% | viability, T/C (second compound 0.3 µM, first compound 0.0316 µM): 29.8% | viability, T/C (second compound 0.3 µM, first compound 0.1 µM): 24.9% | viability, T/C (second compound 0.3 µM, first compound 0.316 µM): 26.4% | viability, T/C (second compound 0.3 µM, first compound 1 µM): 12.7% | viability, T/C (second compound 0.3 µM, first compound 3.16 µM): 13.3% | viability, T/C (second compound 0.3 µM, first compound 10 µM): 17.5%
